From ChEMBL document CHEMBL4507304, “Data for DCP probe TP-021” (2021)

Experiments:
[1] = system: Tyrosine-protein kinase ABL1 (Homo sapiens), P00519 [H396P]; conditions: Compound concentration 1000.0 nM
[2] = system: Tyrosine-protein kinase ABL1 (Homo sapiens), P00519 [H396P]; conditions: Compound concentration 1000.0 nM; remark: listed apart in the source
[3] = biological target: Tyrosine-protein kinase ABL1 (Homo sapiens) (UniProt P00519); conditions: Compound concentration 1000.0 nM
[4] = biological target: Cyclin-dependent kinase 11A (Homo sapiens) (UniProt Q9UQ88); conditions: Compound concentration 1000.0 nM
Cyclin-dependent kinase 11A (Homo sapiens), sequence (Q9UQ88 whole entry): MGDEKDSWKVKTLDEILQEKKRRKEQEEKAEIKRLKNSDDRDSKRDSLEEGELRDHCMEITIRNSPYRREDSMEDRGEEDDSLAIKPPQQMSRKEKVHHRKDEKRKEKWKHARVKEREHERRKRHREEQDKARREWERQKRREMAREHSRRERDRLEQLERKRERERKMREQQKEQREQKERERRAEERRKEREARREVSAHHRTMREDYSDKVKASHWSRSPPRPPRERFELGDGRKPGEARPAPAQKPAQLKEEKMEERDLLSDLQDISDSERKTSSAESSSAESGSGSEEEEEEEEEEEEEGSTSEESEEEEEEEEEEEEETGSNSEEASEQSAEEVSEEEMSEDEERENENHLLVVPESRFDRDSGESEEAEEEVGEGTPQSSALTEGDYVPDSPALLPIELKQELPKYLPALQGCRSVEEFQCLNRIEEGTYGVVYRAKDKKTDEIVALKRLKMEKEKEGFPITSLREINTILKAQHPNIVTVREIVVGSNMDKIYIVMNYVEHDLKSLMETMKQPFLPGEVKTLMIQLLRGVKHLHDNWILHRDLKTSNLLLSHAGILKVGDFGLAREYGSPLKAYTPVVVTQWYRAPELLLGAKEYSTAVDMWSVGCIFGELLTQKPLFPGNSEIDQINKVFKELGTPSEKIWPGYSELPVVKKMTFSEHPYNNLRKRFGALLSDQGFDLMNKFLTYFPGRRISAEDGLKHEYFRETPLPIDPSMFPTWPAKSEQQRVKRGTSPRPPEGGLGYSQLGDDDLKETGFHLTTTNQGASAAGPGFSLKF

[5] = biological target: Cyclin-dependent kinase 4 (Homo sapiens) (UniProt P11802); conditions: Compound concentration 1000.0 nM
[6] = biological target: Cyclin-dependent kinase-like 1 (Homo sapiens) (UniProt Q00532); conditions: Compound concentration 1000.0 nM
[7] = biological target: Serine/threonine-protein kinase Chk1 (Homo sapiens) (UniProt O14757); conditions: Compound concentration 1000.0 nM
Serine/threonine-protein kinase Chk1 (Homo sapiens), sequence (O14757 whole entry, canonical isoform): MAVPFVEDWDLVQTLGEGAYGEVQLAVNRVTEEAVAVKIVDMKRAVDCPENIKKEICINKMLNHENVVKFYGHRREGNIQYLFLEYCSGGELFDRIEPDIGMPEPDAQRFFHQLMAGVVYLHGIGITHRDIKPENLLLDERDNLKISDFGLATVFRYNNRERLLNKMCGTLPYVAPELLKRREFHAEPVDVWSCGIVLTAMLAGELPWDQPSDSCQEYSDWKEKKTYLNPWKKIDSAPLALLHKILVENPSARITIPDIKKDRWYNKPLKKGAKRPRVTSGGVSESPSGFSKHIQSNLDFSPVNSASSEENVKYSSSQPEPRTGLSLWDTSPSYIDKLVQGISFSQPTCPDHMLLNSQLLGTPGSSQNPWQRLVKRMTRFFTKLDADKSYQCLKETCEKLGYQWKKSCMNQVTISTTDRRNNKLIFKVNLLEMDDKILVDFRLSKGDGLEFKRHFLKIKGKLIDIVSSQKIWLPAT

[8] = biological target: Casein kinase I isoform gamma-3 (Homo sapiens) (UniProt Q9Y6M4); conditions: Compound concentration 1000.0 nM
[9] = biological target: Dual specificity tyrosine-phosphorylation-regulated kinase 1A (Homo sapiens) (UniProt Q13627); conditions: Compound concentration 1000.0 nM
[10] = biological target: Dual specificity tyrosine-phosphorylation-regulated kinase 2 (Homo sapiens) (UniProt Q92630); conditions: Compound concentration 1000.0 nM
Dual specificity tyrosine-phosphorylation-regulated kinase 2 (Homo sapiens), sequence (Q92630 whole entry): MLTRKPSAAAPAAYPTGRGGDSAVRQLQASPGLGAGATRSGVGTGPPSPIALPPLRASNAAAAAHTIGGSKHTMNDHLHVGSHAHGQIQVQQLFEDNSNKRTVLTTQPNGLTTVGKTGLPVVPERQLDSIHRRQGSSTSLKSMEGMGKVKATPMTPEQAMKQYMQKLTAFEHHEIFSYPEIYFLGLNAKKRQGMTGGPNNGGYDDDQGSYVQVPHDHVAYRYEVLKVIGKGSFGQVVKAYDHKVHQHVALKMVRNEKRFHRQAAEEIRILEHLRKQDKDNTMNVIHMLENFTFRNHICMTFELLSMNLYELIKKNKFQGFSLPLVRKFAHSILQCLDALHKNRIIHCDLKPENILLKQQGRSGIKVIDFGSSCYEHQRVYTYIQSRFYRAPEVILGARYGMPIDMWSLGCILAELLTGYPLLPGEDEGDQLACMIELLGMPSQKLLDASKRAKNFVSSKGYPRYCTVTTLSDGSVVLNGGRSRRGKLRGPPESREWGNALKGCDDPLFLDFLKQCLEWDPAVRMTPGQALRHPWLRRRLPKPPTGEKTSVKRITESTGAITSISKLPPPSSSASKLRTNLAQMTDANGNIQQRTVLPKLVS

[11] = system: Epidermal growth factor receptor (Homo sapiens), P00533 [G719S]; conditions: Compound concentration 1000.0 nM
[12] = system: Epidermal growth factor receptor (Homo sapiens), P00533 [L858R]; conditions: Compound concentration 1000.0 nM
[13] = system: Epidermal growth factor receptor (Homo sapiens), P00533 [L858R,T790M]; conditions: Compound concentration 1000.0 nM
[14] = system: Epidermal growth factor receptor (Homo sapiens), P00533 [UNDEFINED MUTATION]; conditions: Compound concentration 1000.0 nM
[15] = biological target: Eukaryotic translation initiation factor 2-alpha kinase 1 (Homo sapiens) (UniProt Q9BQI3); conditions: Compound concentration 1000.0 nM
[16] = biological target: Ephrin type-A receptor 8 (Homo sapiens) (UniProt P29322); conditions: Compound concentration 1000.0 nM
Ephrin type-A receptor 8 (Homo sapiens), sequence (P29322 whole entry): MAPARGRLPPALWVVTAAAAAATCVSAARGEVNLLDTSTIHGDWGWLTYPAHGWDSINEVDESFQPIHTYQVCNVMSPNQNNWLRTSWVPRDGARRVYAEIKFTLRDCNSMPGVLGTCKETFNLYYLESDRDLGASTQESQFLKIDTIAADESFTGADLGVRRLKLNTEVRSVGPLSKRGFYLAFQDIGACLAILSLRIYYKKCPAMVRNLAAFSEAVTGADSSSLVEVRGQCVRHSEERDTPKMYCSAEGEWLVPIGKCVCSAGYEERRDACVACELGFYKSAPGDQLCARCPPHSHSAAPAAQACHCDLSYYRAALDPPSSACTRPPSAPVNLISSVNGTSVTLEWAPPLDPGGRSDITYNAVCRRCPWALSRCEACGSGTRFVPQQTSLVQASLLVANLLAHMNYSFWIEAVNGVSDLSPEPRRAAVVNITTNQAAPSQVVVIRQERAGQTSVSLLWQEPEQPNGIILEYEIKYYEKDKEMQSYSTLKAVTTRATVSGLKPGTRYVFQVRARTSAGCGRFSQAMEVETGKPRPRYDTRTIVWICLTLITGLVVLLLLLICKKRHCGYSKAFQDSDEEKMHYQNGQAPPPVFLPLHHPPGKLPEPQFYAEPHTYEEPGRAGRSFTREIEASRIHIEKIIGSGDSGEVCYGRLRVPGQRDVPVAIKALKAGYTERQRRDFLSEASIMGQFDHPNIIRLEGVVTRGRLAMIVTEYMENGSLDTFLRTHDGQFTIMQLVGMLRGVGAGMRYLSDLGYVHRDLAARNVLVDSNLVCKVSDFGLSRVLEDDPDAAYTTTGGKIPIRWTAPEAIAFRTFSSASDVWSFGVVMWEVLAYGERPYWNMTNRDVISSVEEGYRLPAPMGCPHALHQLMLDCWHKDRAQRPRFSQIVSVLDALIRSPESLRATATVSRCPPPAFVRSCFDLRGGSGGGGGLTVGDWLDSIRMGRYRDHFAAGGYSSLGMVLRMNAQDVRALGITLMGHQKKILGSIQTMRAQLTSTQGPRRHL

[17] = system: Receptor-type tyrosine-protein kinase FLT3 (Homo sapiens), P36888 [D835H]; conditions: Compound concentration 1000.0 nM
[18] = system: eIF-2-alpha kinase GCN2 (Homo sapiens), Q9P2K8 [S808G]; conditions: Compound concentration 1000.0 nM
[19] = biological target: Tyrosine-protein kinase ITK/TSK (Homo sapiens) (UniProt Q08881); conditions: Compound concentration 1000.0 nM
[20] = biological target: Mitogen-activated protein kinase 8 (Homo sapiens) (UniProt P45983); conditions: Compound concentration 1000.0 nM
[21] = biological target: Mast/stem cell growth factor receptor Kit (Homo sapiens) (UniProt P10721); conditions: Compound concentration 1000.0 nM
[22] = biological target: Serine/threonine-protein kinase 10 (Homo sapiens) (UniProt O94804); conditions: Compound concentration 1000.0 nM
[23] = biological target: Leukocyte tyrosine kinase receptor (Homo sapiens) (UniProt P29376); conditions: Compound concentration 1000.0 nM
[24] = biological target: Mitogen-activated protein kinase kinase kinase 1 (Homo sapiens) (UniProt Q13233); conditions: Compound concentration 1000.0 nM
[25] = biological target: Dual specificity mitogen-activated protein kinase kinase 3 (Homo sapiens) (UniProt P46734); conditions: Compound concentration 1000.0 nM
Dual specificity mitogen-activated protein kinase kinase 3 (Homo sapiens), sequence (P46734 whole entry): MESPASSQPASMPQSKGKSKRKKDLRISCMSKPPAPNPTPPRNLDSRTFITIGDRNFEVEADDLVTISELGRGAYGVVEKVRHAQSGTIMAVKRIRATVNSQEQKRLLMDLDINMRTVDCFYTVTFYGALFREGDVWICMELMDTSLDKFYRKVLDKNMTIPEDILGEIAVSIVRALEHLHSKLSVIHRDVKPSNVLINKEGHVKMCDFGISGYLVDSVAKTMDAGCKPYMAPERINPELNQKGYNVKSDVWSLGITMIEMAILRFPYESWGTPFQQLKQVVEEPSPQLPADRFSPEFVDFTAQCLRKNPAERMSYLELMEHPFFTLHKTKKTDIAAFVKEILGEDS

[26] = system: Hepatocyte growth factor receptor (Homo sapiens), P08581 [M1250T]; conditions: Compound concentration 1000.0 nM
[27] = biological target: Mitogen-activated protein kinase kinase kinase 10 (Homo sapiens) (UniProt Q02779); conditions: Compound concentration 1000.0 nM
[28] = biological target: Serine/threonine-protein kinase 3 (Homo sapiens) (UniProt Q13188); conditions: Compound concentration 1000.0 nM
Serine/threonine-protein kinase 3 (Homo sapiens), sequence (Q13188 whole entry): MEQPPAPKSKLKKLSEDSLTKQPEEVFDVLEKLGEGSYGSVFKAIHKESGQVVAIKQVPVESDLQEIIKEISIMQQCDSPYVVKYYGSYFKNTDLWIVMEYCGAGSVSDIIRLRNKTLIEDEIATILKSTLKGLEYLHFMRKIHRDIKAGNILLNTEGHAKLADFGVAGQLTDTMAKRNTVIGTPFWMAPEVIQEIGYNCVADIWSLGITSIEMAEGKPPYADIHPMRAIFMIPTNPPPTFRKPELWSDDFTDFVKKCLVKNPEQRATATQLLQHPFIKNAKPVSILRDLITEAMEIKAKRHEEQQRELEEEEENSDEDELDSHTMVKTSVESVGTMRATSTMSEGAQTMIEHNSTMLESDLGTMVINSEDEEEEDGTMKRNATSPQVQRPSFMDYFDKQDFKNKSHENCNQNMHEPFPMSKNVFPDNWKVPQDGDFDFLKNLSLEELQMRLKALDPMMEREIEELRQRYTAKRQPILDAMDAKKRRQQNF

[29] = biological target: Serine/threonine-protein kinase mTOR (Homo sapiens) (UniProt P42345); conditions: Compound concentration 1000.0 nM
[30] = biological target: Myosin light chain kinase family member 4 (Homo sapiens) (UniProt Q86YV6); conditions: Compound concentration 1000.0 nM
Myosin light chain kinase family member 4 (Homo sapiens), sequence (Q86YV6 whole entry): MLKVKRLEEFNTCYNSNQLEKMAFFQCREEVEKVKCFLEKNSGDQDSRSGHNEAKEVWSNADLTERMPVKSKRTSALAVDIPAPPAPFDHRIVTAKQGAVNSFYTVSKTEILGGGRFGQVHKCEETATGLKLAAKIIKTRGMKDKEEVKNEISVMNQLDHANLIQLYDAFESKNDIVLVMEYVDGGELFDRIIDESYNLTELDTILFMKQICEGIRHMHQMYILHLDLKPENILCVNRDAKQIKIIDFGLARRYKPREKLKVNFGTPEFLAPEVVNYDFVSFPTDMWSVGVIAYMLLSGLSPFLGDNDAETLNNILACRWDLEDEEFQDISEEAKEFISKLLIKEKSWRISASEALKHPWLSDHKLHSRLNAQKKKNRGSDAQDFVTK

[31] = biological target: Platelet-derived growth factor receptor alpha (Homo sapiens) (UniProt P16234); conditions: Compound concentration 1000.0 nM
[32] = biological target: Phosphorylase b kinase gamma catalytic chain, skeletal muscle/heart isoform (Homo sapiens) (UniProt Q16816); conditions: Compound concentration 1000.0 nM
[33] = biological target: Serine/threonine-protein kinase D3 (Homo sapiens) (UniProt O94806); conditions: Compound concentration 1000.0 nM
[34] = biological target: Proto-oncogene tyrosine-protein kinase receptor Ret (Homo sapiens) (UniProt P07949); conditions: Compound concentration 1000.0 nM
[35] = biological target: Proto-oncogene tyrosine-protein kinase ROS (Homo sapiens) (UniProt P08922); conditions: Compound concentration 1000.0 nM
[36] = biological target: Ribosomal protein S6 kinase alpha-4 (Homo sapiens) (UniProt O75676); conditions: Compound concentration 1000.0 nM
[37] = biological target: SNF-related serine/threonine-protein kinase (Homo sapiens) (UniProt Q9NRH2); conditions: Compound concentration 1000.0 nM
[38] = biological target: Dual specificity testis-specific protein kinase 1 (Homo sapiens) (UniProt Q15569); conditions: Compound concentration 1000.0 nM
[39] = biological target: Serine/threonine-protein kinase WNK3 (Homo sapiens) (UniProt Q9BYP7); conditions: Compound concentration 1000.0 nM
[40] = biological target: Mitogen-activated protein kinase kinase kinase 19 (Homo sapiens) (UniProt Q56UN5); conditions: Compound concentration 1000.0 nM
[41] = biological target: Tyrosine-protein kinase ZAP-70 (Homo sapiens) (UniProt P43403); conditions: Compound concentration 1000.0 nM
[42] = biological target: 5-hydroxytryptamine receptor 1A (Homo sapiens) (UniProt P08908); conditions: Compound concentration 10.0 uM
[43] = biological target: 5-hydroxytryptamine receptor 5A (Homo sapiens) (UniProt P47898); conditions: Compound concentration 10.0 uM
[44] = biological target: Mu-type opioid receptor (Homo sapiens) (UniProt P35372); conditions: Compound concentration 10.0 uM
Mu-type opioid receptor (Homo sapiens), sequence (P35372 whole entry): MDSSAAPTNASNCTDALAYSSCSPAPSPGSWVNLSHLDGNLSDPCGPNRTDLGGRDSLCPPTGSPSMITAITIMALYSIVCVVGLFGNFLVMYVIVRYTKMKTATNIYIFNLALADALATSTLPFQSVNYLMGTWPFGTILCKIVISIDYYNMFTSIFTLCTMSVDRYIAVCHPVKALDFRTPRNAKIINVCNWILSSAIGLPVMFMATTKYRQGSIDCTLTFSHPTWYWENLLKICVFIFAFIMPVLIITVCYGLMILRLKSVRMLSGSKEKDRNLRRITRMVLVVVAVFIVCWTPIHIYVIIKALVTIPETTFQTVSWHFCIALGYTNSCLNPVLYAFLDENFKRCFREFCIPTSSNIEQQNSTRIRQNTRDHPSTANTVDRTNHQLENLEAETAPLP

[45] = biological target: Alpha-1B adrenergic receptor (Homo sapiens) (UniProt P35368); conditions: Compound concentration 10.0 uM
Alpha-1B adrenergic receptor (Homo sapiens), sequence (P35368 whole entry): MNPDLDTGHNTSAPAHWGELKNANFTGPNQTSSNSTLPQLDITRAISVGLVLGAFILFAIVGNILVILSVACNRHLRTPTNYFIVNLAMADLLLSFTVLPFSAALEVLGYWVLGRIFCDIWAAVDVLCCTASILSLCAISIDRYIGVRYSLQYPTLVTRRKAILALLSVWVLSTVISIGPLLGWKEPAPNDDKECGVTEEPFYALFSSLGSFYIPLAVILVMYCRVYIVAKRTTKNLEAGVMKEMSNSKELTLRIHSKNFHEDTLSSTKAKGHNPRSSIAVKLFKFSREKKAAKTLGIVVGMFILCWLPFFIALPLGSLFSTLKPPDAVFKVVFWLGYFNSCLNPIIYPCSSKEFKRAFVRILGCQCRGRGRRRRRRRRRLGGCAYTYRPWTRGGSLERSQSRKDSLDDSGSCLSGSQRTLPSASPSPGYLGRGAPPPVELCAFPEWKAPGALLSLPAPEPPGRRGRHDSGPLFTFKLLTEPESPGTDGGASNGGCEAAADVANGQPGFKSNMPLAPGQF

N#Cc1ccc(Nc2ccc3[nH]c(=O)[nH]c3c2)c(Cl)c1
inactive: residual activity [1] 93% | residual activity [2] 95% | residual activity [3] 100% | residual activity [4] 97% | residual activity [5] 100% | residual activity [6] 84% | residual activity [7] 98% | residual activity [8] 99% | residual activity [9] 100% | residual activity [10] 85% | residual activity [11] 100% | residual activity [12] 100% | residual activity [13] 79% | residual activity [14] 100% | residual activity [15] 100% | residual activity [16] 100% | residual activity [17] 100% | residual activity [18] 93% | residual activity [19] 100% | residual activity [20] 98% | residual activity [21] 100% | residual activity [22] 100% | residual activity [23] 100% | residual activity [24] 79% | residual activity [25] 75% | residual activity [26] 100% | residual activity [27] 99% | residual activity [28] 100% | residual activity [29] 98% | residual activity [30] 100% | residual activity [31] 100% | residual activity [32] 100% | residual activity [33] 100% | residual activity [34] 97% | residual activity [35] 100% | residual activity [36] 70% | residual activity [37] 100% | residual activity [38] 100% | residual activity [39] 100% | residual activity [40] 100% | residual activity [41] 90% | inhibition [42] -5.44% | inhibition [43] -7.6% | inhibition [44] 0.37% | inhibition [45] 10%

O=C1CCc2cc(Nc3cc(OC4CCOCC4)c([N+](=O)[O-])cc3Cl)ccc2N1
inactive: residual activity [1] 89% | residual activity [2] 85% | residual activity [3] 100% | residual activity [4] 100% | residual activity [5] 81% | residual activity [6] 78% | residual activity [7] 95% | residual activity [8] 67% | residual activity [9] 80% | residual activity [10] 97% | residual activity [11] 100% | residual activity [12] 100% | residual activity [13] 76% | residual activity [14] 100% | residual activity [15] 100% | residual activity [16] 100% | residual activity [17] 99% | residual activity [18] 85% | residual activity [19] 95% | residual activity [20] 91% | residual activity [21] 95% | residual activity [22] 100% | residual activity [23] 100% | residual activity [24] 65% | residual activity [25] 86% | residual activity [26] 93% | residual activity [27] 94% | residual activity [28] 100% | residual activity [29] 89% | residual activity [30] 96% | residual activity [31] 97% | residual activity [32] 100% | residual activity [33] 92% | residual activity [34] 89% | residual activity [35] 100% | residual activity [36] 65% | residual activity [37] 100% | residual activity [38] 92% | residual activity [39] 87% | residual activity [40] 100% | residual activity [41] 91% | inhibition [42] -4.09% | inhibition [43] 6.14% | inhibition [44] 1.31% | inhibition [45] 17.2%
